{"source": "patent EP0598011B1", "about": "“ECDYSTEROID DEPENDENT REGULATION OF GENES IN MAMMALIAN CELLS” (GENENTECH, INC., priority 1991, dated 1993)", "target": "T1, DHR23α (Drosophila melanogaster, UniProt P34021)", "T1 construct": "To isolate the full-length DHR23α clones; expressed in transfected cells; host or cells: human 293 cells", "T1 sequence (P34021 1-878)": "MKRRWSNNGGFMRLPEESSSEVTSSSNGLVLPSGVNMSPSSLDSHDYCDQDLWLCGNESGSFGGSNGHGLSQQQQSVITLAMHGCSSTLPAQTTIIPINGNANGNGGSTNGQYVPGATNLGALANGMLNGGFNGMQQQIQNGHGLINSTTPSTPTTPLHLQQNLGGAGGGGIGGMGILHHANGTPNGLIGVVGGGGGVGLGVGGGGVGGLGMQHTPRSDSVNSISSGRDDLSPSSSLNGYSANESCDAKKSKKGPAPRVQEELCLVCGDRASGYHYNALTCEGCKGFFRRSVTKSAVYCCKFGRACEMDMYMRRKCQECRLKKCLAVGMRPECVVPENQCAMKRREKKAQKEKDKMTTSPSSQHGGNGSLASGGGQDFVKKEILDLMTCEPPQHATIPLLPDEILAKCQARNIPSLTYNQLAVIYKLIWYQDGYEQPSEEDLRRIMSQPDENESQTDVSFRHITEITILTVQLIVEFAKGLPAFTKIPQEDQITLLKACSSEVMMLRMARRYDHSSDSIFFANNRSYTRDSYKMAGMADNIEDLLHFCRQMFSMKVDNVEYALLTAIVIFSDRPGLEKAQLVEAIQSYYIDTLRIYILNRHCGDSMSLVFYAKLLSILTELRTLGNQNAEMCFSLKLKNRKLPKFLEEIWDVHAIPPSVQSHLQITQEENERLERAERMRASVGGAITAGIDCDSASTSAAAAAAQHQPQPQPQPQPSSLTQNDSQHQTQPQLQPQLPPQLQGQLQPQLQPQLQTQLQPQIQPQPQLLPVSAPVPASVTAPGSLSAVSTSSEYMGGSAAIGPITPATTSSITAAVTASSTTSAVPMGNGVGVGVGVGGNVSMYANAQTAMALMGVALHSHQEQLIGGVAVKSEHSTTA", "T1 sequence (P19793 1-462 partner)": "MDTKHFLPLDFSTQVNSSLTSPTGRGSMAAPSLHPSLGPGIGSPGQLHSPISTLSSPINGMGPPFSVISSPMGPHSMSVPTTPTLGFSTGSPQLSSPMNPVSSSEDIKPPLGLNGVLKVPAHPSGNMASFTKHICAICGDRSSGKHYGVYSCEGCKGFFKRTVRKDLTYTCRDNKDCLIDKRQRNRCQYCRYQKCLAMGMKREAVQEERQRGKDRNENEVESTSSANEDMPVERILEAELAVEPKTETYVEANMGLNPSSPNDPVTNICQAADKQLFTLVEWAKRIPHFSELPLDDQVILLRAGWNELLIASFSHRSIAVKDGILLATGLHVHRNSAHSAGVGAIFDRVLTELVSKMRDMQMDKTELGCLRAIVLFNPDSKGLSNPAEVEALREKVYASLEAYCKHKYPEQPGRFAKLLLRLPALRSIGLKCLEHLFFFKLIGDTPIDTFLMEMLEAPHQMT", "assay": "DHR23α transactivation of EcRE (Ec4M-77CO) CAT reporter in transfected human 293 cells", "type": "cell-based", "settings": "pRSV.DHR23α + pEc4M-77CO (EcRE) CAT reporter, ligand 1 µM, 48 hrs", "procedure": "Figure. 2. […] Human 293 cells were cotransfected with 2.5 µg of the expression plasmid pRSV.DHR23α or the parental expression plasmid pRSV (Control) and 0.5 µgs of the reporter plasmid pEc4M-77CO (EcRE) or pG4M-77CO (GRE). As a control for transfection efficiency, 0.5 µgs of the control plasmid pRSV.hGH was included in the transfection mixture. After transfection, cells were treated without (-) or with alpha-ecdysone (alpha), 20-OH ecdysone (20-OH), polypodine B (ppB), ponasterone A (ponA) or muristeroine A (murA). CAT extracts were harvested 48 hrs after transfection and assayed. The values were normalized to the expression of hGH and the average values of three independent experiments are shown. The \"fold induction\" represents the level of expression of the reporter gene in cells incubated with hormone divided by the expression of that reporter gene in extracts from cells incubated in the absence of added ligand.\nI determined whether DHR23α could function in mammalian cells treated with ecdysteroids to enhance the transcription of a reporter gene containing EcREs linked to the murine mammary tumor virus (MTV) promoter and chloramphenicol acetyltransferase (CAT) gene. Human 293 cells were cotransfected with an RSV-based expression vector that encodes DHR23a and the reporter gene Ec4M-77CO that contains 4 copies of an ecdysone response element (EcRE) from the Drosophila HSP27 promoter (G. Riddihough and H. R. B. Pelham, EMBO J. 6, 3729 [1987]) linked to an MTV promoter-CAT construct.\nHuman 293 cells were cotransfected with 2.5 µg of the expression plasmid pRSV.DHR23α or the parental expression plasmid pRSV (Control) and 0.5 µgs of the reporter plasmid pEc4M-77CO (EcRE) or pG4M-77CO (GRE). As a control for transfection efficiency, 0.5 µgs of the control plasmid pRSV.hGH was included in the transfection mixture. After transfection, cells were treated without (-) or with alpha-ecdysone (alpha), 20-OH ecdysone (20-OH), polypodine B (ppB), ponasterone A (ponA) or muristeroine A (murA). All candidate ligands were added at a concentration of 1 µM. CAT extracts were harvested 48 hrs after transfection, and assays were performed as described (D. R. Cavener, Nucl. Acids Res. 15, 1353-1361 [1987]). The values were normalized to the expression of hGH and the average values of three independent experiments are shown in Figure 2. The \"fold induction\" represents the level of expression of the reporter gene in cells incubated with hormone divided by the expression of that reporter gene in extracts from cells incubated in the absence of added ligand.\nCells were transfected with the DHR23α expression vector and Ec4M-77CO reporter gene and treated without (-) or with the following hormones (1 µM): muristerone A (mur A) dexamethasone (Dex) 17β-estradiol (E2), aldosterone (Aldo), corticosterone (Cort) hydroxycorticosterone (OH-Cort) thyroid hormone (T3), promegestone (Promeg) or 1,25-dihydroxy vitamin D3 (VD3). Reporter gene activity was determined as described above for Figure 2.", "data": [{"compound": "CC(C)CCC(O)[C@](C)(O)[C@H]1CC[C@@]2(O)C3=CC(=O)C4(O)CC(O)C(O)C[C@]4(C)[C@H]3C(O)C[C@]12C", "note": "(some centres unmarked) [muristerone A, 2,3,5,11,14,20,22-Heptahydroxy-7-cholesten-6-one]", "values": [{"measurement": "agonist for DHR23α in mammalian cells (expression of the reporter gene)", "value": "markedly increased"}, {"measurement": "agonist for DHR23α in mammalian cells (expression of the reporter gene)", "setting": "listed as muristerone", "value": "strong agonist"}]}]}
